Reference: US12478626B2, “Kinase mutants and uses thereof” (SIB Swiss Institute of Bioinformatics, priority 2017, dated 2025)

Target: T1, wild type Zap-70 (Homo sapiens, UniProt P43403)
T1 sequence (P43403 1-619): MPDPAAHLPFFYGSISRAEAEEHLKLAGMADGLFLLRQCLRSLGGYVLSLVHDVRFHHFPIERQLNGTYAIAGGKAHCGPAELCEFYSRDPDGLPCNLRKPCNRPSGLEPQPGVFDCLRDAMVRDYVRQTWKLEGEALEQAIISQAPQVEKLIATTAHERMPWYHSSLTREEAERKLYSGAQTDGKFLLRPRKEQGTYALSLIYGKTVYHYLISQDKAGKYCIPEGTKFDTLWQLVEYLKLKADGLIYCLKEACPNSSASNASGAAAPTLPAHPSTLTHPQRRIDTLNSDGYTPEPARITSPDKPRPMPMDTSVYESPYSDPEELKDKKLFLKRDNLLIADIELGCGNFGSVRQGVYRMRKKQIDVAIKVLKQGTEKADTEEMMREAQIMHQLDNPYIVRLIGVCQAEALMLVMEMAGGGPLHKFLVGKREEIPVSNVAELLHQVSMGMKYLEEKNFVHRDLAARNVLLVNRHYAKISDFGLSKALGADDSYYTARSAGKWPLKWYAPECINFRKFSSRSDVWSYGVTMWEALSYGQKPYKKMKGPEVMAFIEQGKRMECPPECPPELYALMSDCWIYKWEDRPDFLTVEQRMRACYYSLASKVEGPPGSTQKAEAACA
Experiment: not given
Details: Karaman et al.; cited from earlier work

Compound | inhibitory effect on the wild type Zap-70
CS(=O)(=O)CCNCc1ccc(-c2ccc3ncnc(Nc4ccc(OCc5cccc(F)c5)c(Cl)c4)c3c2)o1 [Lapatinib] | no or little inhibitory effect

Tested on: Zap-70 mutants in P116 cells
Experiment: Inhibition of IL-2 production by TKI at two concentrations, Zap-70 mutants versus WT
Details: 500 nM and 1 or […], 24 h and 48 h

Compound | inhibition in production of IL-2 in mutants compared to Zap-70 WT
CS(=O)(=O)CCNCc1ccc(-c2ccc3ncnc(Nc4ccc(OCc5cccc(F)c5)c(Cl)c4)c3c2)o1 [Lapatinib] | increase of cell response
Crizotinib | increase of cell response
C#Cc1cccc(Nc2ncnc3cc(OCCOC)c(OCCOC)cc23)c1 [Erlotinib] | higher in mutants than WT
C=CC(=O)Nc1cccc(Nc2nc(Nc3ccc(N4CCN(C(C)=O)CC4)cc3OC)ncc2C(F)(F)F)c1 [CO-1686] | No significantly different inhibition
CCOc1cc2ncc(C#N)c(Nc3ccc(OCc4ccccn4)c(Cl)c3)c2cc1NC(=O)/C=C/CN(C)C [Neratinib] | No significantly different inhibition
